# PMC6315694, “Synthesis of Pseudellone Analogs and Characterization as Novel T-type Calcium Channel Blockers” (Marine Drugs, 2018)
# Assays:
# [1] = molecular target: T1, N-type CaV2.2 (Homo sapiens, UniProt Q00975); test: HVA calcium channel FLIPR assay, N-type (SH-SY5Y cells); type: cell-based; settings: for IC50: 10 µM nifedipine present, N = 3, mean ± SEM, read-out: IC50 CaV2.2 (HVA CaVs)
# T1 construct: endogenous in cells
# Method: (§1) The human embryonic kidney 293 (HEK 293) cell lines (from Emmanuel Bourinet, Montpellier, France) stably expressing CaV3.2 or CaV3.3 were cultured under 5% carbon dioxide at 37 °C in Dulbecco’s Modified Eagle Medium (DMEM) Glutamax (Gibco, Life Technologies, Carlsbad, CA, USA) supplemented with 10% (v/v) fetal bovine serum (FBS), 100 U/mL penicillin, 100 μg/mL streptomycin (Gibco, Life Technologies), and 750 μg/mL geneticin (G418) (Gibco, Life Technologies). The Chinese Hamster Ovary (CHO) cell lines (Emmanuel Bourinet, Montpellier, France) expressing CaV3.1 were cultured under 5% carbon dioxide at 37 °C in Alpha Minimum Essential Media (MEM) Glutamax (Gibco, Life Technologies), supplemented with 10% (v/v) fetal bovine serum (FBS) and 300 μg/mL geneticin (G418) (Gibco, Life Technologies). The human neuroblastoma SH-SY5 Y cells (Victor Diaz, Goettingen, Germany) were cultured under 5% carbon dioxide at 37 °C in RPMI 1640 antibiotic-free medium (Invitrogen, Carlsbad, CA, USA), supplemented with 15% FBS and 2 mM GlutaMAX™ (Invitrogen). D-PBS (Gibco, Life Technologies) was used to wash the cells, and 0.25% Trypsin-EDTA (Gibco, Life Technologies) was used to detach cells from the flask surface. They were split in a ratio of 1:5 (ideally 1000 cells/cm^2) when they reached 70%–80% confluence (every 2–3 days). Transiently transfected CaV3.1HEK293 T cells were used in FLIPR Assays. HEK 293 T cells were cultured under 5% carbon dioxide at 37 °C in DMEM supplemented with 10% (v/v) FBS. D-PBS was used to wash the cells, and 0.25% Trypsin-EDTA was used to detach cells from the flask surface. The cells were split and seeded at 6 million cells per T175 flask, to reach 70%–80% confluence after 24 h. The next day, 12 μg DNA of human CaV3.1 was incubated in 900 μL serum-free DMEM with 36 μL FuGENE HD transfection reagent (Promega Corporation, Madison, WI, US) (1:3 DNA/Fugene ratio) for 20 min, and then the mixture was added into the cell flask slowly, drop by drop. After the transfection, the cells were cultured under 5% carbon dioxide at 37 °C for 24 h and then moved to a 28 °C incubator.
# SH-SY5Y cells were seeded into 384-well black wall clear bottom plates at a density of 15,000 cells per well, resulting in 90%–95% confluence after 24 h. The media were then removed from the wells and replaced with 20 μL of 10% calcium 4 dye (Molecular Devices) in physiological salt solution (PSS) (containing 5.9 mM KCl, 1.4 mM MgCl2, 10 mM HEPES, 1.2 mM NaH2 PO4, 5 mM NaHCO3, 140 mM NaCl, 11.5 mM glucose, and 1.8 mM CaCl2, pH 7.4) with 0.1% BSA. […] Positive control on the first reagent plate contained 15 μL of PSS (0.1% BSA), whereas PSS (0.1% BSA) containing 1 µM CVID and 10 µM nifedipine (final concentration) was used as a negative control. The fluorescence readings were recorded and converted as described previously, and agonist containing 90 mM KCl + 5 mM CaCl2 was used in the second addition.
# Data were plotted and analyzed using GraphPad Prism v7.0 (GraphPad Software Inc., San Diego, CA, USA). A four-parameter logistic Hill equation with variable Hill coefficients was fitted to the data for concentration-response curves. Data are means ± SEM of n independent experiments. Statistical analysis was performed with a paired Student’s t-test with statistical significance at p < 0.05.
# [2] = molecular target: CaV3.3 (Homo sapiens, UniProt Q9P0X4); test: T-type calcium channel window current FLIPR assay, CaV3.3; type: cell-based; settings: for IC50: FLIPR window current assay, HEK 293 stable, N = 3, mean ± SEM, read-out: IC50 CaV3.3 (LVA CaVs)
# Method: as §1
# (§2) HEK 293 cells stably expressing CaV3.2 or CaV3.3 were seeded into 384-well black wall clear bottom plates (Corning, Lowell, MA, USA) at a density of 30,000 cells per well. Transiently transfected CaV3.1HEK293 T cells were seeded into 384-well black wall clear bottom plates at a density of 60,000 cells per well. Once the cells reached 90%–95% confluence after 24 h, the media were removed from the wells and replaced with 20 μL of 10% calcium 4 dye (Molecular Devices, Sunnyvale, CA, USA) in HBSS-HEPES (containing 5 mM KCl, 10 mM HEPES, 140 mM NaCl, 10 mM glucose, and 0.5 mM CaCl2, pH 7.4) with 0.1% bovine serum albumin (BSA). The cells were incubated for 30 min at 37 °C in the presence of 5% carbon dioxide. Each well on the reagent plates for the first addition contained 15 μL different concentrations of compounds dissolved in HBSS-HEPES containing 0.1% BSA and <0.1% DMSO and was incubated for 20 min after loading. Positive and negative controls contained 15 μL of HBSS-HEPES (0.1% BSA) alone. The plates were placed in the FLIPR^TETRA (Molecular Devices, Sunnyvale, CA, USA) programmed to measure maximum fluorescence intensity following a second addition of the agonist 5 mM CaCl2. The data acquisition parameters were adjusted as follows: Baseline fluorescence of 1500–2000 arbitrary fluorescence units (AFU), emission wavelength of 515–575 nm, and excitation wavelength of 470–495 nm. HBSS-HEPES (0.1% BSA) was used in the second addition as a negative control. One fluorescence reading was taken before the second addition. Then the fluorescence readings were recorded every two seconds for 300 s. Raw fluorescence readings in the form of relative light units were converted to response over baseline using ScreenWorks® (Molecular Devices, version 3.2.0.14) software.
# (§3) Data were plotted and analyzed using GraphPad Prism v7.0 (GraphPad Software Inc., San Diego, CA, USA).
# [3] = tested on: voltage-gated calcium channels (VGCCs); test: FLIPR cell-based assays on VGCCs (overall statement); parameters: species or system human; settings: all VGCC FLIPR assays (CaV3.1, CaV3.2, CaV3.3, CaV2.2, CaV1)
# Method: as §2
# [4] = molecular target: CaV3.2 (Homo sapiens, UniProt O95180); test: T-type calcium channel window current FLIPR assay, CaV3.2; type: cell-based; settings: FLIPR window current assay, HEK 293 stable, N = 3, mean ± SEM; read-out: IC50 CaV3.2 (LVA CaVs)
# Method: as §1, §2, §3
# [5] = tested on: L-type calcium channel (CaV1); test: HVA calcium channel FLIPR assay, L-type (SH-SY5Y cells); type: cell-based, human; settings: 1 µM CVID present, N = 3, mean ± SEM, read-out: IC50 CaV1 (HVA CaVs)
# Method: as §1
# SH-SY5Y cells were seeded into 384-well black wall clear bottom plates at a density of 15,000 cells per well, resulting in 90%–95% confluence after 24 h. […] The fluorescence readings were recorded and converted as described previously, and agonist containing 90 mM KCl + 5 mM CaCl2 was used in the second addition.
# Data were plotted and analyzed using GraphPad Prism v7.0 (GraphPad Software Inc., San Diego, CA, USA). […]
# [6] = molecular target: T2, human CaV3.1 (Homo sapiens, UniProt O43497); test: T-type calcium channel window current FLIPR assay, CaV3.1; type: cell-based; settings: for IC50: FLIPR window current assay, transiently transfected HEK293T, N = 3, mean ± SEM, read-out: IC50 CaV3.1 (LVA CaVs)
# T2 construct: expressed in transfected cells; host or cells: HEK 293T, transient transfection (FuGENE HD)
# Method: as §1, §2, §3
# [7] = tested on: T-type calcium channel (CaV3.x); parameters: method as in PMID 22344687, PMID 19582593; settings: activated current generated from the channel-closed state; cited from earlier work
# T1 sequence (Q00975 whole entry): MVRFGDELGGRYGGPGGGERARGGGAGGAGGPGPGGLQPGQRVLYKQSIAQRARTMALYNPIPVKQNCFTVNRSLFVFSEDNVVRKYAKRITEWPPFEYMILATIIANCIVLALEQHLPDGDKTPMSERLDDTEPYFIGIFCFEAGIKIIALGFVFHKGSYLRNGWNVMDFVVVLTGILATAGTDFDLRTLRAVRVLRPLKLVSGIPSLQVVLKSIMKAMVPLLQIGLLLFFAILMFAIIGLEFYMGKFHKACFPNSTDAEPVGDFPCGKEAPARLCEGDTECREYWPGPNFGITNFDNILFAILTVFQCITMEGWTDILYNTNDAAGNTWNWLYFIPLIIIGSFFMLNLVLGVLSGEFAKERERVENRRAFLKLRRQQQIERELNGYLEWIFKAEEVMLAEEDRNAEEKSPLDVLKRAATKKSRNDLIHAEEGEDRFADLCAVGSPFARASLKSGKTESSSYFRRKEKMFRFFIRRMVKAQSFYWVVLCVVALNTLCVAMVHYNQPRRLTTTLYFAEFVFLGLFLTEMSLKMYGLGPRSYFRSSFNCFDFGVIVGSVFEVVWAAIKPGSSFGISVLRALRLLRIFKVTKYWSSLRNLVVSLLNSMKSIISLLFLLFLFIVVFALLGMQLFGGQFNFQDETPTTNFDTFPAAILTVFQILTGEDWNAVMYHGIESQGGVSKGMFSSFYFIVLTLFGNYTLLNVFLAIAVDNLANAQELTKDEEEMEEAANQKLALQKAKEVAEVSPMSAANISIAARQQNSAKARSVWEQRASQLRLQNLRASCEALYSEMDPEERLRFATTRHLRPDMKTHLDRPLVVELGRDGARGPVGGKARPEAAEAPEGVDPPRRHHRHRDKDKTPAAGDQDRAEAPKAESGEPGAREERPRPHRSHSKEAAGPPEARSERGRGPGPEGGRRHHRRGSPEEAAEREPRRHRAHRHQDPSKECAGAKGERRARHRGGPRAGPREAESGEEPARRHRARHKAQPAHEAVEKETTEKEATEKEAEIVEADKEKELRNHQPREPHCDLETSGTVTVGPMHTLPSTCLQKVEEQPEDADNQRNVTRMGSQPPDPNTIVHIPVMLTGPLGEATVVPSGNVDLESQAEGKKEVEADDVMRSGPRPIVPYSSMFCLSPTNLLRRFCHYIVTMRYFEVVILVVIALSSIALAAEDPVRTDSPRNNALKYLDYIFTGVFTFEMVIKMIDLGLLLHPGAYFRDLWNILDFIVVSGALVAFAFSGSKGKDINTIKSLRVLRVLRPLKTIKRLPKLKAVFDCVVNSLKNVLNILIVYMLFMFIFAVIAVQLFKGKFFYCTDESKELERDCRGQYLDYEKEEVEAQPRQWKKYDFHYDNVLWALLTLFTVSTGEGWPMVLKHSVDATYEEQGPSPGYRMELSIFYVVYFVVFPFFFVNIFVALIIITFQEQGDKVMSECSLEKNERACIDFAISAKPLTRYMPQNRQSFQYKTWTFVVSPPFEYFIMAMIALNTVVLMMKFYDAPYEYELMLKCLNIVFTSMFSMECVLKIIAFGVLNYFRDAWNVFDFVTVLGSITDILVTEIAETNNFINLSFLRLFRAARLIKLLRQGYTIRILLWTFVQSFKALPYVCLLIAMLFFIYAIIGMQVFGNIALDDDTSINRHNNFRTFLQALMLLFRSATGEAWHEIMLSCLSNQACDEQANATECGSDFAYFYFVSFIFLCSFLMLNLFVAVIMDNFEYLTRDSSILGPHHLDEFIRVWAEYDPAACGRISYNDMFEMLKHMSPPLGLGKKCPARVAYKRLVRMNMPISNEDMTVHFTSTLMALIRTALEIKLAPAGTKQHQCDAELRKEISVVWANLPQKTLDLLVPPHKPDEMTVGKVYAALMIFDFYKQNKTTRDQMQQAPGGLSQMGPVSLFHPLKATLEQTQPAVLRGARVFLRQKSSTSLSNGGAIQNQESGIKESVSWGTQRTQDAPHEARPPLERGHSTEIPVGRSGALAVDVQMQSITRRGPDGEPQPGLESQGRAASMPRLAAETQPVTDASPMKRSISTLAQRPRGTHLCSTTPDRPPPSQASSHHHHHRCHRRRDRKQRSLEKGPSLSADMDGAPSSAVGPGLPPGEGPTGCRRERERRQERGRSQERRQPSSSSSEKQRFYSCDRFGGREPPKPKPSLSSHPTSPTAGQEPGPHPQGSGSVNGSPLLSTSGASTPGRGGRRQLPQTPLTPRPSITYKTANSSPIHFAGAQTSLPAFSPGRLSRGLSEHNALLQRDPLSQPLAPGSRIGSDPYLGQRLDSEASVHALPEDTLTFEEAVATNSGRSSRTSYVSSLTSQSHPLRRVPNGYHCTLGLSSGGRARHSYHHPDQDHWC
# T1 sequence (P54284 whole entry partner): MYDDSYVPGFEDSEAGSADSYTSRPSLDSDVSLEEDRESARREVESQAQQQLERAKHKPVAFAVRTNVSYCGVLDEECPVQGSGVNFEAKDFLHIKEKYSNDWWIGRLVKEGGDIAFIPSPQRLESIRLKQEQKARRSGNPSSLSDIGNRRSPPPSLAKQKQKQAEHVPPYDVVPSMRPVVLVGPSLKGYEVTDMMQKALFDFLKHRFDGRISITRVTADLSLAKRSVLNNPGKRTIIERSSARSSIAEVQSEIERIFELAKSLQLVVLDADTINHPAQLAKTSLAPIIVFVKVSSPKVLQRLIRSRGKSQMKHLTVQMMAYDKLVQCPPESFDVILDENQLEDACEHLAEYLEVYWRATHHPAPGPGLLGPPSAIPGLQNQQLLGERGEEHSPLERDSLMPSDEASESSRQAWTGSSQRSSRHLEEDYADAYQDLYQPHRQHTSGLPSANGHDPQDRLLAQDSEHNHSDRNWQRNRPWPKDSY
# T1 sequence (P54289 25-946 partner limits assumed): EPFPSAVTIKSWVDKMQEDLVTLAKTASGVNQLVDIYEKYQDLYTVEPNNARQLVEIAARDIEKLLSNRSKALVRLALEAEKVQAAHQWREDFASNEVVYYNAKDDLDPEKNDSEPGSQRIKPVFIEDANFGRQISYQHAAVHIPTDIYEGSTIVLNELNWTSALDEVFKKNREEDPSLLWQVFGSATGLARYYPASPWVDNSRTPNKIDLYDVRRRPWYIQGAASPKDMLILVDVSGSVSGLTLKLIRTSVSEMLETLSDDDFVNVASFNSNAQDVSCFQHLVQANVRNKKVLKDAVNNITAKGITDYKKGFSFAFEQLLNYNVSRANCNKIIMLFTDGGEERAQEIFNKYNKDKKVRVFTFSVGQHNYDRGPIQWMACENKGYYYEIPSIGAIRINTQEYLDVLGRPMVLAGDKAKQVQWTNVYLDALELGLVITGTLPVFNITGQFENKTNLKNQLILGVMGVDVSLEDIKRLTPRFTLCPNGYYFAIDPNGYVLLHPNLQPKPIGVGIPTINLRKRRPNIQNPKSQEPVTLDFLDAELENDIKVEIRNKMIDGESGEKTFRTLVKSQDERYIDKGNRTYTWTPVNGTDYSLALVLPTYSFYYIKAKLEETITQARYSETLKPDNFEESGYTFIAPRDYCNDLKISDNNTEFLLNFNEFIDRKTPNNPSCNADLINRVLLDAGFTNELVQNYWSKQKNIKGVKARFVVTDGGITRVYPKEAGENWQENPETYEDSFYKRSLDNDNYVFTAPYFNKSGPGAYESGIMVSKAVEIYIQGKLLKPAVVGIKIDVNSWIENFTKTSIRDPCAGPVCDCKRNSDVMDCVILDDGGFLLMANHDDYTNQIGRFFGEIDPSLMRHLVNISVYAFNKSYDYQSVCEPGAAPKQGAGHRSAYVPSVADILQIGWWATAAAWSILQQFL
# T1 sequence (P54289 947-1103 partner limits assumed): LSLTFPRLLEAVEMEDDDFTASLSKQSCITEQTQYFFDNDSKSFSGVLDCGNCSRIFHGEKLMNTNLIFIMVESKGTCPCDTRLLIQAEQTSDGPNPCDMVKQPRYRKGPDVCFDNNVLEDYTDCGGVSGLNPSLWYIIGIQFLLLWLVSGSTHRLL
"Kind of block of CaV2.2, in words [1]",IC50 ([1]; SH-SY5Y),"Emax ([1]; SH-SY5Y, n = 3, read-out: Emax, inhibition for N-type CaV2.2)",Further reduced potency for CaV3.3 compared to 2 ([2]; FLIPR),IC50 [2],IC50 [4],IC50 [5],"Kind of block of CaV3.1, in words ([6]; FLIPR)",IC50 [6],"Emax ([6]; FLIPR, n = 3, read-out: Emax, inhibition for CaV3.1)",SMILES,"Inhibition of Ca2+ responses, in words [3]","Potency for T-type window currents versus activated current, in words [7]"
partial blocking,82.5 ± 7.6 µM,39.3%,> 3 fold,26.6 ± 1.23 µM,44 ± 1.6 µM,322 ± 21.6 µM,partial blocking,53.5 ± 2.72 µM,63.6%,"CNC(=O)C(NC(=O)C(C)(c1c[nH]c2ccccc12)c1c[nH]c2ccccc12)C(=O)c1c[nH]c2ccccc12 (stereo not drawn) [Compound 1, Pseudellone C]",weak calcium channel blocker,
,147 ± 1.72 µM,,,90.1 ± 4.99 µM,80.7 ± 6.21 µM,132 ± 1.63 µM,,122 ± 5.96 µM,,"CC(C(=O)N[C@@H](Cc1c[nH]c2ccccc12)C(=O)O)(c1c[nH]c2ccccc12)c1c[nH]c2ccccc12 [Compound 3a, (2,2-di(1H-indol-3-yl)propanoyl)-L-tryptophan]",poor inhibition,
,179 ± 19.7 µM,,,119 ± 8.66 µM,132 ± 6.13 µM,264 ± 11.9 µM,,72.28 ± 0.41 µM,,"CC(C(=O)O)(c1c[nH]c2ccccc12)c1c[nH]c2ccccc12 [Compound 4, 2,2-di(1H-indol-3-yl)propanoic Acid]",poor inhibition,
,,,,,,,,,,CC(C)(C)NC(=O)CN1CCC(CNC(=O)c2cc(F)cc(Cl)c2)CC1 [Compound Z944],,better potency for T-type window currents than the activated current
,,,,,,,,,,C[C@@H](NC(=O)Cc1ccc(C2CC2)cc1)c1ccc(OCC(F)(F)F)cn1 [TTA-A2],,better potency for T-type window currents than the activated current

SMILES,"Kind of block of CaV2.2, in words [1]",IC50 ([1]; SH-SY5Y),"Emax ([1]; SH-SY5Y, n = 3, read-out: Emax, inhibition for N-type CaV2.2)",Further reduced potency for CaV3.3 compared to 2 ([2]; FLIPR),IC50 [2],IC50 [4],IC50 [5],"Kind of block of CaV3.1, in words ([6]; FLIPR)",IC50 [6],"Emax ([6]; FLIPR, n = 3, read-out: Emax, inhibition for CaV3.1)","Inhibition of Ca2+ responses, in words [3]","Potency for T-type window currents versus activated current, in words [7]"
"O=c1[nH]c2ccccc2n1C1CCN(CCCC(c2ccc(F)cc2)c2ccc(F)cc2)CC1 [pimozide, reference compound]",,,,,7.71 ± 0.7 µM,4.2 ± 1.06 µM,,,,,,
